The record followed here is patent publication US20100267561A1, “HERBICIDAL PYRIDAZINONE DERIVATIVES” (priority 2007, published 2010).

Common to all, as to format: in vivo
The test system of assay [1] is bermudagrass (Cynodon dactylon). As to the kind of experiment: Test B pre-/postemergence plant response. Particulars: Preemergence. The essentials: (§1)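 Preemergence and postemergence (plants 2-18 cm, 1- to 4-leaf stage) applications used test chemicals in a non-phytotoxic solvent with surfactant. Plants were held in a greenhouse 13 to 15 days, then rated visually against controls on a 0-100 scale (0 no effect, 100 complete control).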

The subject of assay [2] is Italian ryegrass (Lolium multiflorum). Nature of the assay: Test B pre-/postemergence plant response. Conditions: Preemergence. The gist of the method: as §1
Assay [3] has as its system johnsongrass (Sorghum halepense). Nature of the assay: Test B pre-/postemergence plant response. Conditions: Preemergence. The essentials: as §1
The test system of assay [4] is pigweed (Amaranthus retroflexus). Nature of the assay: Test A pre-/postemergence plant response. Particulars: for pest or weed control at 31 g/ha / pest or weed control at 125 g/ha / pest or weed control at 500 g/ha: Amaranthus retroflexus, 240 h, read-out: Plant response rating, Pigweed; for pest or weed control at 500 g/ha: 500 g ai/ha. The essentials: (§2)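 Both pre- and postemergence treatment given concurrently; postemergence seedlings measured 2–10 cm at the one- to two-leaf stage. Visual injury, 0–100 scale versus untreated, at ~10 days.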

A further assay relates to corn (Zea mays). Nature of the assay: Test A pre-/postemergence plant response. Conditions: for Corn plant response rating (crop injury, 0 = no effect, 100 = complete kill) at 31 g/ha / Corn plant response rating (crop injury, 0 = no effect, 100 = complete kill) at 125 g/ha / Corn plant response rating (crop injury, 0 = no effect, 100 = complete kill) at 500 g/ha: Zea mays, 240 h; for Corn plant response rating (crop injury, 0 = no effect, 100 = complete kill) at 500 g/ha: 500 g ai/ha. The gist of the method: as §2

For assay [5], the system named is morningglory (Ipomoea coccinea). As to the kind of experiment: Test A pre-/postemergence plant response. The gist of the method: as §2
The test system of assay [6] is large crabgrass (Digitaria sanguinalis). Nature of the assay: Test A pre-/postemergence plant response. Particulars: for pest or weed control at 31 g/ha / pest or weed control at 125 g/ha / pest or weed control at 500 g/ha: Digitaria sanguinalis, 240 h, read-out: Plant response rating, Crabgrass, Large; for pest or weed control at 500 g/ha: 500 g ai/ha. The essentials: as §2

The test system of assay [7] is barnyardgrass (Echinochloa crus-galli). As to the kind of experiment: Test A pre-/postemergence plant response. Conditions: for pest or weed control at 31 g/ha / pest or weed control at 125 g/ha / pest or weed control at 500 g/ha: Echinochloa crus-galli, 240 h, read-out: Plant response rating, Barnyardgrass; for pest or weed control at 500 g/ha: 500 g ai/ha. The gist of the method: as §2

[8] abbreviates: 16 g ai/ha, scale 0 to 100 (0 no effect, 100 complete control).
Setting [9] is: 31 g ai/ha, 0 to 100 scale, 0 no effect, 100 complete control.
The mark [10] stands for this setting: Postemergence, 31 g ai/ha, 0 to 100 scale, 0 no effect, 100 complete control.
Setting [11] is: Postemergence, 125 g ai/ha, 0 to 100 scale, 0 no effect, 100 complete control.
Where [12] appears, read: Preemergence, 31 g ai/ha, 0 to 100 scale, 0 is no effect, 100 is complete control.
Where [13] appears, read: Preemergence, 125 g ai/ha, 0 to 100 scale (0 no effect, 100 complete control).
Setting [14] is: post-emergence, Postemergence, 31 g ai/ha, 0 to 100 scale (0 no effect, 100 complete control).
[15] abbreviates: post-emergence, Postemergence, 125 g ai/ha, 0 to 100 scale, 0 no effect, 100 complete control.
The mark [16] stands for this setting: pre-emergence, Preemergence, 31 g ai/ha, 0 to 100 scale, 0 is no effect, 100 is complete control.
[17] abbreviates: pre-emergence, Preemergence, 125 g ai/ha, 0 to 100 scale (0 no effect, 100 complete control).
Where [18] appears, read: post-emergence, Postemergence, 0 to 100 scale, 0 no effect, 100 complete control.
The mark [19] stands for this setting: pre-emergence, Preemergence, 0 to 100 scale (0 no effect, 100 complete control).

Like-named read-outs stand apart in the source and are kept apart here.

Regarding `Cc1cc(-c2ccc(Cl)cc2)nn1-c1c(OS(=O)(=O)C(C)C)cnn(C)c1=O` [Compound 50], in assay [1] (8 g ai/ha, scale 0 to 100 (0 no effect, 100 complete control)), the “Bermudagrass plant response rating” value is 90. Further, the “Plant response rating, Bermudagrass” value in assay [1] (setting [8]) is 100; in assay [1] (setting [9]), 100; in assay [1] (62 g ai/ha, scale 0 to 100), 100. For the same compound, the “Plant response rating, Ryegrass, Italian” value in assay [2] (setting [8]) was 0; in assay [2] (31 g ai/ha, scale 0 to 100 (0 no effect, 100 complete control)) it was 5; in assay [2] (62 g ai/ha, scale 0 to 100), 100. Moreover, the “Ryegrass, Italian plant response rating” value in assay [2] (8 g ai/ha, scale 0 to 100) was 0. Moreover, the “Plant response rating, Johnsongrass” value in assay [3] (setting [8]) is listed as 95; in assay [3] (setting [9]) it was 98; in assay [3] (62 g ai/ha, scale 0 to 100), 100. The “Johnsongrass plant response rating” value in assay [3] (8 g ai/ha, scale 0 to 100) came to 70. Also, the “Plant response rating, Pigweed” value in assay [4] (setting [10]), in assay [4] (setting [11]), in assay [4] (setting [12]) and in assay [4] (setting [13]) was 0 in each case. Moreover, the “Plant response rating, Corn” value is 0 in the assay with corn (Zea mays) (setting [10]), 30 in the assay with corn (Zea mays) (setting [11]), 0 with corn (Zea mays) (setting [12]) and 20 in the assay on corn (Zea mays) (setting [13]). The “Plant response rating, Morningglory” value in assay [5] (setting [10]), in assay [5] (setting [11]), in assay [5] (setting [12]) and in assay [5] (setting [13]) was 0 throughout. In addition, the “Plant response rating, Crabgrass, Large” value is 0 in assay [6] (setting [10]), 40 in assay [6] (setting [11]), 50 in assay [6] (setting [12]) and 90 in assay [6] (setting [13]). Moreover, the “Plant response rating, Barnyardgrass” value in assay [7] (setting [10]) stood at 0; in assay [7] (setting [11]) it was 70; in assay [7] (setting [12]), 10; in assay [7] (setting [13]), 100.
As for `Cn1ncc(O)c(-c2nn(-c3ccc(C(F)(F)F)cc3)cc2Br)c1=O` [Compound 87, 4-[4-bromo-1-[4-(trifluoromethyl)phenyl]-1H-pyrazol-3-yl]-5-hydroxy-2-methyl-3(2H)-pyridazinone], the pest or weed control at 31 g/ha in assay [4] (setting [14]) was found to be 0%; in assay [4] (setting [16]) it was 0%; in assay [6] (setting [14]), 10%; in assay [6] (setting [16]), 20%; in assay [7] (setting [14]), 0%; in assay [7] (setting [16]) it was 0%. Further, the pest or weed control at 125 g/ha in assay [4] (setting [15]) is 0%; in assay [4] (setting [17]) it was 0%; in assay [6] (setting [15]), 80%; in assay [6] (setting [17]), 70%; in assay [7] (setting [15]) it was 90%; in assay [7] (setting [17]) it was 50%. The Corn plant response rating (crop injury, 0 = no effect, 100 = complete kill) at 31 g/ha in the assay on corn (Zea mays) (setting [14]) and with corn (Zea mays) (setting [16]) was 0% in each case. The Corn plant response rating (crop injury, 0 = no effect, 100 = complete kill) at 125 g/ha is 40% in the assay with corn (Zea mays) (setting [15]) and 20% in the assay on corn (Zea mays) (setting [17]).
For the compound `Cc1cc(-c2ccc(Br)cc2)nn1-c1c(O)cnn(C2CCCCO2)c1=O` (centres unmarked) [Compound 77, 4-[3-(4-bromophenyl)-5-methyl-1H-pyrazol-1-yl]-5-hydroxy-2-(tetrahydro-2H-pyran-2-yl)-3(2H)-pyridazinone], the pest or weed control at 125 g/ha in assay [4] (setting [15]) is 0%; in assay [4] (setting [17]) it was 0%; in assay [6] (setting [15]), 70%; in assay [6] (setting [17]), 10%; in assay [7] (setting [15]), 50%; in assay [7] (setting [17]), 0%. The pest or weed control at 500 g/ha in assay [4] (setting [18]) was 0%; in assay [4] (setting [19]) it was 0%; in assay [6] (setting [18]) it was 100%; in assay [6] (setting [19]), 100%; in assay [7] (setting [18]), 100%; in assay [7] (setting [19]), 100%. Further, the Corn plant response rating (crop injury, 0 = no effect, 100 = complete kill) at 125 g/ha in the assay with corn (Zea mays) (setting [15]) stood at 80%; in the assay on corn (Zea mays) (setting [17]), 30%. The Corn plant response rating (crop injury, 0 = no effect, 100 = complete kill) at 500 g/ha with corn (Zea mays) (setting [18]) came to 100%; in the assay with corn (Zea mays) (setting [19]) it was 80%.
Consider `Cc1cn(-c2ccc(C(F)(F)F)cc2)nc1-c1c(O)cnn(C)c1=O` [Compound 85, 5-hydroxy-2-methyl-4-[4-methyl-1-[4-(trifluoromethyl)phenyl]-1H-pyrazol-3-yl]-3(2H)-pyridazinone], for which the pest or weed control at 31 g/ha in assay [4] (setting [14]) stood at 0%; in assay [4] (setting [16]), 0%; in assay [6] (setting [14]), 0%; in assay [6] (setting [16]) it was 10%; in assay [7] (setting [14]) it was 0%; in assay [7] (setting [16]), 0%. The pest or weed control at 125 g/ha in assay [4] (setting [15]) worked out at 0%; in assay [4] (setting [17]), 0%; in assay [6] (setting [15]), 40%; in assay [6] (setting [17]), 70%; in assay [7] (setting [15]), 30%; in assay [7] (setting [17]) it was 40%. Also, the Corn plant response rating (crop injury, 0 = no effect, 100 = complete kill) at 31 g/ha with corn (Zea mays) (setting [14]) and in the assay with corn (Zea mays) (setting [16]) was 0% in each case. Besides, the Corn plant response rating (crop injury, 0 = no effect, 100 = complete kill) at 125 g/ha in the assay on corn (Zea mays) (setting [15]) and with corn (Zea mays) (setting [17]) was 0% throughout.
